Assay results published in US6136781A, “LH-RH receptor antagonists” (Takeda Chemical Industries, Ltd., priority 1995, dated 2000).
Where two headings read alike, the source gives them in different places. Square brackets hold non-standard residues; d marks the D form. Peptide text beside a SMILES is read from it. * marks the point of attachment. Naphthalene1sulfonyl = O=S(=O)(c1cccc2ccccc12)*; Gly(2-thienyl) = N[C@H](C(=O)O)c1cccs1; Hexanoyl(6-Ph) = O=C(CCCCCc1ccccc1)*; Mtr = COc1cc(C)c(S(=O)(=O)*)c(C)c1C; Butanoyl(4-Ph) = O=C(CCCc1ccccc1)*; 1Naphthoyl = O=C(c1cccc2ccccc12)*; NHPhenethyl = c1ccc(CCN*)cc1; Phg = N[C@H](C(=O)O)c1ccccc1; Tos = Cc1ccc(S(=O)(=O)*)cc1; Bz = O=C(c1ccccc1)*

Assays:
Human LH-RH Receptor = biological target: T1, Human LH-RH Receptor (Homo sapiens, UniProt P30968); experiment: Inhibition of bonding of 125I-leuprorelin to human LH-RH receptor (receptor assay); type: binding; conditions: human LH-RH receptor-expressing CHO cell membrane fraction, 25° C. for 60 minutes, Hill plotting
T1 construct: expressed in transfected cells; host or cells: CHO cells (Chinese hamster ovary), membrane fraction
T1 sequence (P30968 1-328): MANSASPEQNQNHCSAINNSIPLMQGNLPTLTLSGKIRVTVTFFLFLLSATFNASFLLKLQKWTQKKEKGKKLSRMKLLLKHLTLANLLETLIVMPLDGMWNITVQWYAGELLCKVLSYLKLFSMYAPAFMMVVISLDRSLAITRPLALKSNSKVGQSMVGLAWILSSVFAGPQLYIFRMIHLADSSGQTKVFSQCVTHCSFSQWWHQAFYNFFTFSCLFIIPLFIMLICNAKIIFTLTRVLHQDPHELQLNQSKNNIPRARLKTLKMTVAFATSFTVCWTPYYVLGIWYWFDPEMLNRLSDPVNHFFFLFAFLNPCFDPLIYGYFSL
Description: Human LH-RH receptor-expressing CHO cells (10^9 cells) were floated in a phosphate buffer saline containing 5 mM EDTA (PBS-EDTA) and subjected to centrifugation at 100×g for 5 minutes. 10 ml of a cell homogenate buffer (10 mM NaHCO3, 5 mM EDTA, pH 7.5) was added to the resulting cell pellets, and the resulting mixture was then homogenized in a polytron homogenizer. This was thereafter centrifuged at 400×g for 15 minutes, and the resulting supernatant was collected in an ultra-centrifuger and again centrifuged at 100,000×g for 1 hour to obtain a precipitate of the cell membrane fraction. This precipitate was suspended in 2 ml of an assay buffer and centrifuged at 100,000×g for 1 hour. The cell membrane fraction thus collected as a precipitate was again suspended in 20 ml of an assay buffer, put into plural vials and stored at -80° C. These were individually thawed before use.
Determination of Percentage of Inhibition of Bonding of ^125 I-Leuprorelin to Human LH-RH Receptor
The human LH-RH receptor-expressing CHO cell membrane fraction as prepared in Reference Example 2 was diluted with an assay buffer to have a concentration of 200 μg/ml and put into plural tubes at 188 μl/tube. Where the human LH-RH receptor-expressing CHO cell membrane fraction was used, 2 μl of a solution of the test compound (2 mM) as dissolved in 60%-DMSO and 10 μl of ^125 I-leuprorelin (38 nM) were added to the dilution of the fraction. In order to measure the maximum amount of the ^125 I-leuprorelin as bonded to the receptor, a reaction system comprising 2 μl of 60%-DMSO and 10 μl of ^125 -leuprorelin (38 nM) was prepared. In order to measure the amount of ^125 I-leuprorelinas non-specifically bonded to the receptor, a reaction system comprising 2 μl of leuprorelin (100 μM) as dissolved in 60%-DMSO and 10 μl of ^125 I-leuprorelin (38 nM) was prepared.
Each system of the present invention comprising the human LH-RH receptor-expressing CHO cell membrane fraction was reacted at 25° C. for 60 minutes. After the reaction, the reaction mixture was filtered under suction through a polyethyleneimine-treated Wattman glass filter (GF-F). After the filtration, the radioactivity of ^125 I-leuprorelin in the residue remained on the filter paper was measured using a g-counter.
From the data measured, a value of [(TB-SB)/(TB-NSB)]×100 (where SB is the radioactivity of the test system to which the test compound had been added; TB is the radioactivity of the maximum bonding system; and NSB is the radioactivity of the non-specific bonding system) was calculated, which indicates the bonding-inhibition percentage (%) of the compound tested. […] The results obtained are shown in [Table 1].

[1] = amide bond, 15-membered ring
[2] = amide bond; 15-membered ring; PyBOP/DIEA; DMF; 25.0 °C; 2 steps
[3] = amide bond, DMF
[4] = DIEA/AcOH, DMF, resin, with chain assembly

Molecule	IC50 (Human LH-RH Receptor)	also measured
CC(C)C[C@@H]1NC(=O)[C@@H](Cc2c[nH]c3ccccc23)NC(=O)[C@H](Cc2ccc(O)cc2)NC(=O)[C@@H](CCCCNS(=O)(=O)c2cccc3ccccc23)NC(=O)[C@H](CCCNC(=N)N)NC1=O [Example 1, cyclo(-Arg-D-Lys(SO2 Nap(1))-Tyr-D-Trp-Leu-)] (cyclo(LR[dK](Naphthalene1sulfonyl)Y[dW]))	0.9 µM	–
CC(C)C[C@@H]1NC(=O)[C@@H](Cc2c[nH]c3ccccc23)NC(=O)[C@H](Cc2ccc(O)cc2)NC(=O)[C@@H](CCCCNC(=O)CCCc2ccccc2)NC(=O)[C@H](CCCNC(=N)N)NC1=O [Example 19, cyclo(-Arg-D-Lys(COCH2 CH2 CH2 Ph)-Tyr-D-Trp-Leu-)] (cyclo(LR[dK](Butanoyl(4-Ph))Y[dW]))	1 µM	–
CC(C)C[C@@H]1NC(=O)[C@@H](Cc2c[nH]c3ccccc23)NC(=O)[C@H](Cc2ccc(O)cc2)NC(=O)[C@@H](CCCCNC(=O)CCCCCc2ccccc2)NC(=O)[C@H](CCCNC(=N)N)NC1=O [Example 20, cyclo(-Arg-D-Lys (COCH2 CH2 CH2 CH2 CH2 Ph)-Tyr-D-Trp-Leu-)] (cyclo(LR[dK](Hexanoyl(6-Ph))Y[dW]))	0.1 µM	–
CC(C)C[C@@H]1NC(=O)[C@@H](Cc2c[nH]c3ccccc23)NC(=O)[C@H](CCCCNC(=O)c2ccccc2)NC(=O)[C@@H](CCC(=O)NCCc2ccccc2)NC(=O)[C@H](CCCNC(=N)N)NC1=O [Example 21, cyclo(-Arg-D-Glu(NHCH2 CH2 Ph)-Lys(COPh)-D-Trp-Leu-)] (cyclo(K(Bz)[dW]LR[dE](NHPhenethyl)))	0.4 µM	–
CC(C)C[C@@H]1NC(=O)[C@@H](Cc2c[nH]c3ccccc23)NC(=O)[C@H](CCCNC(=N)N)NC(=O)[C@@H](Cc2ccc(O)cc2)NC(=O)[C@@H](CCCCNS(=O)(=O)c2cccc3ccccc23)NC1=O [Example 23, cyclo(-D-Tyr-Arg-D-Trp-Leu-D-Lys(SO2 Nap(1))-)] (cyclo(L[dK](Naphthalene1sulfonyl)[dY]R[dW]))	0.9 µM	–
CC(C)C[C@@H]1NC(=O)[C@@H](Cc2c[nH]c3ccccc23)NC(=O)[C@H](CCCCNC(=O)c2cccc3ccccc23)NC(=O)[C@@H](CCC(=O)NCCc2ccccc2)NC(=O)[C@H](CCCNC(=N)N)NC1=O [Example 31, cyclo(-Arg-D-Glu(NHCH2 CH2 Ph)-Lys(CONap(1))-D-Trp-Leu-)] (cyclo(K(1Naphthoyl)[dW]LR[dE](NHPhenethyl)))	0.2 µM	–
COc1cc(C)c(S(=O)(=O)NC(=N)NCCC[C@H]2NC(=O)[C@H](Cc3ccccc3)NC(=O)[C@H](Cc3c[nH]c4ccccc34)NC(=O)[C@@H](C)NC(=O)[C@H](Cc3ccccc3)NC2=O)c(C)c1C [Example 35, cyclo(-Phe-D-Arg-(Mtr)-Phe-D-Ala-Trp-)] (cyclo(F[dA]WF[dR](Mtr)))	0.4 µM	–
C[C@H]1NC(=O)[C@H](Cc2ccccc2)NC(=O)[C@@H](CCCNC(=N)N)NC(=O)[C@H](Cc2ccccc2)NC(=O)[C@H](Cc2c[nH]c3ccccc23)NC1=O [Example 36, cyclo(-Phe-D-Arg-Phe-D-Ala-Trp-)] (cyclo(F[dA]WF[dR]))	0.9 µM	–
Cc1ccc(S(=O)(=O)NC(=N)NCCC[C@H]2NC(=O)[C@H](Cc3ccccc3)NC(=O)[C@H](Cc3c[nH]c4ccccc34)NC(=O)[C@@H](C)NC(=O)[C@H](Cc3ccccc3)NC2=O)cc1 [Example 37, cyclo(-Phe-D-Arg(Tos)-Phe-D-Ala-Trp-)] (cyclo(F[dA]WF[dR](Tos)))	0.3 µM	–
C[C@H]1NC(=O)[C@H](Cc2ccccc2)NC(=O)[C@H](CCCNC(=N)N)NC(=O)[C@H](Cc2ccccc2)NC(=O)[C@H](Cc2c[nH]c3ccccc23)NC1=O [Example 43, cyclo(-Phe-Arg-Phe-D-Ala-Trp-)] (cyclo(FRF[dA]W))	1 µM	–
Cc1ccc(S(=O)(=O)NC(=N)NCCC[C@H]2NC(=O)[C@H](c3ccccc3)NC(=O)[C@H](Cc3c[nH]c4ccccc34)NC(=O)[C@@H](C)NC(=O)[C@H](Cc3ccccc3)NC2=O)cc1 [Example 48, cyclo(-Phg-D-Arg(Tos)-Phe-D-Ala-Trp-)] (cyclo(F[dA]W[Phg][dR](Tos)))	0.07 µM	–
Cc1ccc(S(=O)(=O)NC(=N)NCCC[C@H]2NC(=O)[C@H](C)NC(=O)[C@H](Cc3c[nH]c4ccccc34)NC(=O)[C@@H](C)NC(=O)[C@H](Cc3ccccc3)NC2=O)cc1 [Example 51, cyclo(-Ala-D-Arg(Tos)-Phe-D-Ala-Trp-)] (cyclo(A[dR](Tos)F[dA]W))	0.2 µM	–
Cc1ccc(S(=O)(=O)NC(=N)NCCC[C@H]2NC(=O)[C@H](c3ccccc3)NC(=O)[C@H](Cc3ccccc3)NC(=O)[C@@H](C)NC(=O)[C@H](Cc3ccccc3)NC2=O)cc1 [Example 53, cyclo(-Phg-D-Arg(Tos)-Phe-D-Ala-Phe-)] (cyclo(F[Phg][dR](Tos)F[dA]))	0.1 µM	–
Cc1ccc(S(=O)(=O)NC(=N)NCCC[C@H]2NC(=O)[C@H](c3cccs3)NC(=O)[C@H](Cc3c[nH]c4ccccc34)NC(=O)[C@@H](C)NC(=O)[C@H](Cc3ccccc3)NC2=O)cc1 [Example 54, cyclo(-Thg(2)-D-Arg(Tos)-Phe-D-Ala-Trp-)] (cyclo(F[dA]W[Gly(2-thienyl)][dR](Tos)))	0.3 µM	–
C[C@H]1NC(=O)[C@H](Cc2ccccc2)NC(=O)[C@@H](CCCNC(=N)N)NC(=O)[C@H](c2ccccc2)NC(=O)[C@H](Cc2c[nH]c3ccccc23)NC1=O [Example 55, cyclo(-Phg-D-Arg-Phe-D-Ala-Trp-)] (cyclo(F[dA]W[Phg][dR]))	0.2 µM	–
CC(C)C[C@@H]1NC(=O)[C@@H](Cc2c[nH]c3ccccc23)NC(=O)[C@H](Cc2ccc(O)cc2)NC(=O)[C@@H]2CCCN2C(=O)[C@H](Cc2c[nH]c3ccccc23)NC(=O)[C@H](CCCNC(=N)N)NC1=O [Reference Example 1, cyclo(-Tyr-D-Trp-Leu-Arg-Trp-Pro-), reference compound] (cyclo(LRWPY[dW]))	10 µM	–
Cyclo(-Arg(Tos)-D-Glu(NHCH2 CH2 Ph)-Lys(Cl-Z)-D-Trp-Leu-)	–	ring closure, crude yield ([1]; ONB active ester, 4 steps): 72.3%
cyclo(-Phe-D-Arg(Tos)-Phe-D-Phe-Trp-)	–	ring closure, isolated yield [2]: 70.6%
cyclo(-Phe-D-Arg(Tos)-Phe-D-Trp-Trp-)	–	ring closure, isolated yield [2]: 83%
cyclo(-Thg(2)-D-Arg(Tos)-Phe-D-Ala-Trp-)	–	ring closure, yield after HPLC ([3]; 15-membered ring, PyBOP/DIEA, 25.0 °C): 13.8%
cyclo(-Tyr-D-Trp-Leu-Arg-Trp-Pro-)	–	ring closure, yield after HPLC ([3]; 18-membered ring, DIEA, 1.0 mM, 5 steps): 15.3%
cyclo(-pClPhe-Arg(Tos)-Nal(2)-D-Ala-Trp-)	–	ring closure, crude yield [1, 4]: 59.1%
cyclo(-pClPhe-D-Arg(Tos)-Nal(2)-D-Ala-Trp-)	–	ring closure, crude yield [1, 4]: 92.8%
